Here are results for 3 compounds from US20070254861A1, “Methods for the prevention and/or treatment of peripheral arterial disease” (Astellas Pharma Inc., priority 2006, published 2007).

The test system of data set [1] is lauric acid-induced peripheral arterial disease model. Kind of data set: Lesion progression in rat peripheral arterial disease model induced by lauric acid. The class given is in vivo. Here is the method:
A rat peripheral arterial disease model was produced by using a lauric acid injection method modified from that of Ashida et al. (Thrombosis research, 18, 55, 1980). Six to 24 animals were used in each group of this experiment. After being fasted overnight, each rat was anesthetized with pentobarbital (60 mg/kg i.p.), and the left femoral artery was freed from the surrounding tissue. The femoral artery was cannulated with a polyethylene catheter for i.a. injection of the lauric acid and the test drug. For the i.v. infusion of PGE1, the jugular vein was cannulated with a polyethylene catheter. To induce peripheral arterial vascular injury, 0.33 ml/kg of lauric acid (7.5 mg/ml in distilled water) was injected into the distal side of the arterial. Compound (I) was administered in a single i.a. bolus injection 15 minutes after the lauric acid injection. PGE1 was administered either intravenously for 30 minutes at 1 μg/kg/minutes starting 5 minutes before the lauric acid injection or intra-arterially for 15 minutes at 0.2 μg/kg/minutes starting 5 minutes after the lauric acid injection. Clopidogrel was administered orally either at 3 and 30 mg/kg 4 hours before the lauric acid injection, or at 30 mg/kg 2 hours after the lauric acid injection. It was also administered orally once a day for 3 days after the lauric acid injection. The treated hindlimb was examined macroscopically on days 3 after the lauric acid injection. The progress of the lesion was assessed using the following 5-point graded scoring system: grade 0: normal appearance, grade 1: the affected region was limited to the nails, grade 2: the affected region was limited to the fingers, grade 3: either the fingers are beginning to fall off or lesions appear on the paw, grade 4: either the paw is beginning to fall off or lesions appear on the leg. The condition of each toe was assessed and scored, and the sum of the scores for the five toes was used as the lesion index. If a lesion developed on the sole of the foot, 5 more points were added.

Data set [2] has as its system dermal blood flow in rat hindlimbs. Briefly: Decreased dermal blood flow after lauric acid injection (laser Doppler). The class given is in vivo. How it is done:
Three male SD rats (Japan CLEA) were used in each group of this experiment. A laser Doppler blood flow meter (Laser Doppler Perfusion Imager System, Lisca) was used to evaluate the perfusion in the left (ischemic) and right (non-ischemic) rat hindlimbs. Before and during scanning, animals were placed on a heating plate set at 37° C. to minimize variations in temperature. The femoral artery was cannulated with a polyethylene catheter for i.a. injection of the lauric acid and test drug. For i.v. PGE1 infusion, the jugular vein was cannulated with a polyethylene catheter. Either compound (I) (10 μg/kg) or vehicle was administered in an i.a. bolus injection 15 minutes after the lauric acid injection (0.33 ml/kg, 7.5 mg/ml in distilled water). The laser Doppler images were recorded just before and 10 minutes after the lauric acid injection, as well as 10 minutes after the compound (I) (or vehicle) injection. PGE1 was administered by i.v. infusion at a rate of 1 μg/kg/minutes for 30 minutes beginning 5 minutes before the lauric acid injection. The laser Doppler images were recorded just before and 5 minutes after the start of infusion (just before the lauric acid injection), and then again 10 minutes after the lauric acid injection. Either vehicle (0.5% methylcellulose solution) or clopidogrel (30 mg/kg) was orally administered 4 hours before the experiment. For the oral studies, the laser Doppler images were recorded just before and 10 minutes after the lauric acid injection.

The next data set has as its system isolated rat aorta. Briefly: Vasorelaxant effect on vasoconstriction in isolated rat aorta. The class given is cell-based. To be noted: for IC50: Rattus norvegicus. Here is the method:
Four male SD rats (Japan CLEA) were used in each group of this experiment. Rats were anesthetized with pentobarbital (60 mg/kg i.p.) and euthanized via exsanguination. The aortas were isolated and all adjacent tissue was removed. Rings of aorta, approximately […] length, were suspended in 10-ml organ baths containing Krebs-Henseleit solution (henceforth referred to as Krebs) of the following composition (mM): NaCl, 112.0; KCl, 4.7; KH2PO4, 1.2; MgSO4, 1.2; CaCl2, 2.5; NaHCO3, 25.0; glucose, 11.0. The Krebs was maintained at 37±1° C. and aerated with a gas mixture of 95% O2:5% CO2 (pH 7.4). Experiments were conducted on aortic tissue of two types. For type 1, the endothelium was removed by gently rubbing the internal surface of the vessel. For type 2, care was taken to maintain the integrity of the endothelium. One ring was placed on a hook that was suspended from a force displacement transducer (SB-1T, Nihon Kohden, Tokyo, Japan), 1.0 g tension was applied, and changes in the force of contraction were isometrically measured. Following a 1-h equilibration period, the rings were pretreated with 1 μM phenylephrine. Compound (I) was dissolved in dimethyl sulfoxide (DMSO) and added to the baths (0.1% DMSO, v/v), after which a cumulative compound (I) (1-100 nM) concentration-response curve was constructed for each type of ring. Contractions were caused in aorta rings with endothelium using three different compounds: 10 μM serotonin (5-HT), 30 nM endothelin-1 (ET-1), and 60 mM KCl. The vasorelaxant effect of compound (I) on the contractions caused by each of these compounds was then compared. Various concentrations of compound (I) were added 30 minutes before treatment with each vasoconstrictor. For 5-HT and KCl, the concentration-inhibition rate was measured for each tissue. For ET-1, each tissue was used to measure the inhibition rate in response to a given concentration of compound (I).

In data set [3] the test system is ADP-induced platelet aggregation. Briefly: Ex vivo platelet aggregation inhibition after single administration in the rat femoral artery. To be noted: 5 minutes after injection, n=4, mean±SEM. How it is done: Four male SD rats (Japan CLEA) were used in each group of this experiment. All animals were fasted overnight before the experiment. After being anesthetized with pentobarbital (60 mg/kg i.p.), vehicle (5% ethanol) or compound (I) was injected into either the left femoral artery or the right jugular vein via a catheter. The rats were anesthetized with pentobarbital (60 mg/kg i.p.) before blood sampling. Blood was collected from the vena cava in syringes containing 3.8% sodium citrate at the following time points: 5 minutes after an intra-arterial (i.a.) single bolus injection of compound (I) (1-10 μg/kg). Platelet-rich plasma was obtained by centrifuging the blood at 200×g for 5 minutes at ambient temperature. This residue was further centrifuged at 2,000×g for 10 minutes in order to obtain platelet-poor plasma. Platelet counts were measured with an automatic cell counter (MEK-6258, Nihon Kohden, Tokyo, Japan), and adjusted to 3×10^5/μl with platelet-poor plasma. Platelet aggregation in platelet-rich plasma was measured using an aggregometer (MCM Hema Tracer 212, MC Medical, Tokyo, Japan) to record the increase in light transmission detected through a stirred suspension maintained at 37° C. for 5 minutes. Platelet aggregation was induced in 90 μl of platelet-rich plasma (3×10^5/μl) by adding 10 μl of 50 μM ADP. The inhibitory rate was calculated by dividing the absorbance area for the mixture containing the test sample by the absorbance area obtained for the vehicle-treated group.

In data set [4] the test system is systemic blood pressure and heart rate. Briefly: Blood pressure and heart rate after single bolus injection in femoral artery of rats. It counts as in vivo, rat. Here is the method: Five male SD rats (Japan CLEA) were used in each group of this experiment. The rats, which were fasted overnight, were anesthetized with urethane (1.4 g/kg i.p.) and then secured on an operating table. The left carotid artery was cannulated with polyethylene catheters in order to monitor systemic blood pressure and heart rate. The left femoral artery was likewise cannulated with polyethylene catheters for the injection of compound (I). Systemic blood pressure was measured with a pressure transducer (AP-200T, Nihon Kohden) and heart rate was measured with a tachometer (AT-600G, Nihon Kohden) that was triggered by the arterial pulse wave. Changes in these parameters were continuously monitored by a thermal recorder (WT-685G, Nihon Kohden). Compound (I) was administered in an i.a. bolus injection at the rate of 5 mL/kg. The dosage (10 to 100 μg/kg) was increased every 10 to 20 minutes. The inhibitory rate was calculated by dividing the heart rate and mean blood pressure levels obtained after the compound (I) injection by them obtained after the vehicle injection.

Data set [5] in a line: Pharmacokinetic studies using rats, i.v. bolus injection. The class given is in vivo. The note with it: rat, iv, plasma, after i.v. bolus injection.
The subject of another data set is Gq/11. To be noted: Journal of Biological Chemistry, 279, 47438, 2004; cited from earlier work.
In data set [6] the test system is ADP-induced platelet aggregation. To be noted: JP-2003-210190; Journal of Antibiotics, 56, 358, 2003; cited from earlier work.

The structures appear in SMILES notation. Read-outs that look alike come from different tables or passages of the source. Numbered stars: 1 amine (or outer) side, 2 acyl side, 3 side chain; on linkers, the order of the positions; unused ones are H or OH. Bridge positions count the residues as written; N and C are the ends. Square brackets hold non-standard residues; d marks the D form. Peptide text beside a SMILES is read from it. Leu(3R-O(AcLeu(3R-OH))) = CC(=O)N[C@H](C(=O)O[C@H](C(C)C)[C@H](N)C(=O)O)[C@H](O)C(C)C; X1 = CO[C@H](C)C(C(=O)[*:2])N(C)[*:1]; dPhLac = O=C(O)[C@H](O)Cc1ccccc1; NMeA = CN[C@@H](C)C(=O)O; NMeDha = C=C(NC)C(=O)O A value given as a limit tells only on which side of the number the result lay.

For the compound `CCCCC[C@H](O)/C=C/[C@H]1[C@H](O)CC(=O)[C@@H]1CCCCCCC(=O)O` [PGE1, prostaglandin E1], the “Inhibition of lesion progression” value in data set [1] (i.a. infusion at 0.2 μg/kg/minutes for 15 minutes starting 5 minutes after lauric acid) and in data set [1] (i.v. infusion at 1 μg/kg/minutes for 30 minutes starting 5 minutes before lauric acid) was “significantly inhibited lesion progression” in each case. In addition, in data set [2] (continuous i.v. infusion 1 μg/kg/minutes, after lauric acid injection), the “Effect on lauric acid-induced reduction in dermal blood flow” value (“Effect on lauric acid-induced reduction” below) is listed as “no improvement in the blood flow”. In data set [2] (i.v. infusion 1 μg/kg/minutes, 5 minutes after the start of the infusion), the “Dermal blood flow in both hindlimbs before lauric acid” value was “marked increase in dermal blood flow”.

Take `COC(=O)[C@H](c1ccccc1Cl)N1CCc2sccc2C1` [clopidogrel, (+)-(S)-methyl 2-(2-chlorophenyl)-2-(6,7-dihydrothieno[3,2-c]pyridin-5(4H)-yl)acetate]: the “Inhibition of lesion progression” value in data set [1] (oral, administered 4 hours before the lauric acid injection) was “efficacy of clopidogrel was detected”; in data set [1] (oral, administered after the lauric acid injection) it was “no effect was observed”. Further, the “Effect on lauric acid-induced reduction” value in data set [2] (30 mg/kg oral 4 hours before the experiment) is on record as “improved the blood flow only slightly”.

One may read the IC50 as the concentration needed to halve the response being measured. As a reminder, the half-life is the time needed for the level to fall by half in the phase considered. High values mean slow loss, low ones fast loss. Consider `C=C1C(=O)N[C@@H](C)C(=O)N(C)[C@@H](C)C(=O)N[C@@H]([C@H](OC(=O)[C@@H](NC(C)=O)[C@H](O)C(C)C)C(C)C)C(=O)N(C)C([C@@H](C)OC)C(=O)O[C@H](C)[C@H](NC(C)=O)C(=O)O[C@H](Cc2ccccc2)C(=O)N1C` (stereo partly drawn) [compound (I)] (Ac-T[dPhLac][NMeDha]A[NMeA][Leu(3R-O(AcLeu(3R-OH)))][X1]; ester 1-C), for which, in the data set with isolated rat aorta (60 mM KCl, even at a concentration of 1 μM), the “Effect on KCl-induced contractions” value is given as “ineffective”. Besides, the half-inhibitory concentration (IC50) is 0.018 µM in the data set on isolated rat aorta (contraction induced by 30 nM ET-1, aorta with endothelium, n=4, mean, read-out: IC50 of inhibition of vascular contraction); 0.0086 ± 0.001 µM in the data set with isolated rat aorta (contraction induced by 10 μM 5-HT, aorta with endothelium, n=4, mean±SEM, read-out: IC50 of inhibition of vascular contraction); 0.0086 to 0.018 µM in the data set with isolated rat aorta (span over the three vasoconstrictors, read-out: IC50 values for vasoconstrictions induced by phenylephrine, 5-HT and ET-1); 0.016 ± 0.0023 µM in the data set on isolated rat aorta (with endothelium, pre-contracted with 1 μM phenylephrine, n=4, mean±SEM, read-out: IC50 of relaxation of isolated rat aorta); 0.011 µM in the data set with isolated rat aorta (without endothelium, pre-contracted with 1 μM phenylephrine, n=4, mean±SEM, read-out: IC50 of relaxation of isolated rat aorta). For the same compound, the figures for the “Inhibitory rate of ADP-induced platelet aggregation” value in data set [3] (1 μg/kg i.a. bolus), in data set [3] (3 μg/kg i.a. bolus) and in data set [3] (10 μg/kg i.a. bolus) were −5.6±5.4%, 38±5.1% and 71±7.0%, respectively. Further, in data set [1] (single i.a. bolus 15 minutes after the lauric acid injection, day 3), the “Dose inhibiting lesion progression with significance” value is at least 0.003 mg/kg. Further, the “Effect on lauric acid-induced reduction” value in data set [2] (10 μg/kg i.a. bolus 15 minutes after the lauric acid injection) is listed as “improved the lauric acid-induced reduction in dermal blood flow somewhat, but did not correct it completely”. Besides, the figures for the “Relative mean blood pressure reduction” value in data set [4] (30 μg/kg i.a. bolus) and in data set [4] (100 μg/kg i.a. bolus) were 25±5.2% and 50±2.1%, respectively. Moreover, the “Hypotensive dose relative to dose with significant preventive effect (Example 4)” value in data set [4] (i.a. administration) is recorded as 10 times. This compound came in with a Significant hypotensive dose in data set [4] (i.a. bolus, Example 6) of 0.03 mg/kg. For the same compound, the “Change of the heart rate” value in data set [4] (up to 100 μg/kg i.a.) is reported as “no significant change”. The half-life in data set [5] was found to be 3.7 min. Also, the Gq/11 inhibition entry in the data set with Gq/11 is “specific Gq/11 inhibitor”. Also, in data set [6], the “Inhibition of ADP-induced platelet aggregation in human” value is “inhibits ADP-induced platelet aggregation in human”.
